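Briefly, cells in 96-well plates were exposed to five compound concentrations for 48 h, and endpoints were estimated by linear interpolation. TGI: concentration producing complete growth inhibition.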 A value given as a limit tells only on which side of the number the result lay.

Test systems include ACHN renal; RPMI-8226 leukemia; SF-539 CNS; DMS 114 small cell lung; UACC-257 melanoma; CCRF-CEM leukemia; OVCAR-3 ovarian; XF 498 CNS; SF-268 CNS; M19-MEL melanoma; SNB-78 CNS; HT29 colon; LXFL 529 NSCLC; DLD-1 colon; HOP-18 NSCLC; MDA-MB-231 breast; DU-145 prostate.
What all share (experiment): inhibition of tumour cell growth, NCI panel, 48 h

For the molecule `CC1=C(c2ccccc2)CON(c2ccccc2)C1`, the TGI in the assay with ACHN renal, with RPMI-8226 leukemia, in the assay on SF-539 CNS, in the assay with DMS 114 small cell lung, in the assay with UACC-257 melanoma and in the assay with CCRF-CEM leukemia was greater than 100 µM in each case. The TGI in the assay on OVCAR-3 ovarian, in the assay on XF 498 CNS, in the assay on SF-268 CNS, with M19-MEL melanoma, in the assay on SNB-78 CNS and in the assay with HT29 colon was greater than 100 µM in each case. In addition, the TGI with LXFL 529 NSCLC was greater than 100 µM.
In the case of `COc1ccc(/C=N/NC(=O)CSc2nc(-c3ccccc3)c(-c3ccccc3)[nH]2)cc1OC`, the TGI with ACHN renal is 77.2 µM; in the assay with RPMI-8226 leukemia, 51.8 µM; in the assay on SF-539 CNS, 45.6 µM; in the assay on DLD-1 colon, greater than 100 µM; with DMS 114 small cell lung, greater than 100 µM; in the assay on UACC-257 melanoma it was 57.3 µM. Further, the TGI in the assay on CCRF-CEM leukemia is greater than 100 µM; in the assay on OVCAR-3 ovarian, 39.7 µM; in the assay on SF-268 CNS, greater than 100 µM; in the assay with M19-MEL melanoma it was 35.3 µM; in the assay with HT29 colon, 60.3 µM; with LXFL 529 NSCLC, 55.1 µM.
Regarding `COc1cc2c(cc1OC)C(Cc1cc(Br)c(OC)c(OC)c1)=[N+](C)CC2`, the TGI is greater than 100 µM in the assay with ACHN renal; greater than 100 µM in the assay with HOP-18 NSCLC; greater than 100 µM in the assay with RPMI-8226 leukemia; greater than 100 µM in the assay with SF-539 CNS; greater than 100 µM in the assay with DLD-1 colon; 57 µM with DMS 114 small cell lung. In addition, the TGI in the assay on UACC-257 melanoma, in the assay on CCRF-CEM leukemia, in the assay on OVCAR-3 ovarian, with SF-268 CNS, with M19-MEL melanoma and with SNB-78 CNS was greater than 100 µM throughout. Further, the TGI with HT29 colon and with LXFL 529 NSCLC was greater than 100 µM in each case.
Consider `N#CC(C#N)=C(N)/C(C#N)=C/c1ccc(O)c(O)c1`, for which the TGI with ACHN renal, with RPMI-8226 leukemia, with SF-539 CNS, in the assay on DLD-1 colon, in the assay with DMS 114 small cell lung and in the assay with UACC-257 melanoma was greater than 100 µM throughout. For the same molecule, the TGI in the assay with CCRF-CEM leukemia, in the assay on OVCAR-3 ovarian, in the assay with XF 498 CNS, in the assay on SF-268 CNS, in the assay on M19-MEL melanoma and with MDA-MB-231 breast was greater than 100 µM each time. For the same molecule, the TGI in the assay with DU-145 prostate, in the assay with SNB-78 CNS, in the assay with HT29 colon and with LXFL 529 NSCLC was greater than 100 µM each time.
On to `CC(C(=O)c1ccc(O)cc1)C1(O)C(=O)Nc2c(Cl)cc(Cl)cc21` (stereo unspecified), for which the TGI was 28.3 µM in the assay with ACHN renal; 71.5 µM with RPMI-8226 leukemia; greater than 100 µM in the assay with SF-539 CNS; greater than 100 µM in the assay on DLD-1 colon; 24.2 µM with DMS 114 small cell lung; 33.3 µM in the assay with UACC-257 melanoma. Further, the TGI with CCRF-CEM leukemia is 74.7 µM; in the assay with OVCAR-3 ovarian it was greater than 84.3 µM; in the assay on XF 498 CNS it was 47.8 µM; with SF-268 CNS, greater than 100 µM; in the assay on M19-MEL melanoma it was 57.6 µM; with SNB-78 CNS, greater than 85.5 µM. The figures for the TGI with HT29 colon and with LXFL 529 NSCLC were greater than 100 µM and greater than 93.7 µM, respectively.
`COc1ccc(C2S/C(=C\c3ccc([N+](=O)[O-])cc3)C(=O)N2NC(=O)Cc2ccccc2)cc1` (stereo unspecified): the TGI in the assay with ACHN renal, with HOP-18 NSCLC, in the assay with RPMI-8226 leukemia, with SF-539 CNS, in the assay on DLD-1 colon and in the assay with DMS 114 small cell lung was greater than 100 µM each time. Besides, the TGI in the assay with UACC-257 melanoma, in the assay on CCRF-CEM leukemia, in the assay on SF-268 CNS, in the assay with M19-MEL melanoma, with HT29 colon and with LXFL 529 NSCLC was greater than 100 µM each time.
Take `O=C(c1nc2ccc(Cl)cc2[nH]c1=O)C(O)c1ccco1` (stereo unspecified): the TGI in the assay with ACHN renal, with HOP-18 NSCLC, in the assay on SF-539 CNS, with DLD-1 colon, in the assay with DMS 114 small cell lung and in the assay with UACC-257 melanoma was greater than 100 µM throughout. The TGI in the assay on CCRF-CEM leukemia, in the assay with OVCAR-3 ovarian, in the assay on SF-268 CNS, with M19-MEL melanoma, with HT29 colon and in the assay on LXFL 529 NSCLC was greater than 100 µM throughout.
Turning to `CCOC(=O)/C(=C/c1ccccc1)N(CC)CC`, the TGI in the assay with ACHN renal, in the assay with RPMI-8226 leukemia, in the assay on SF-539 CNS, with DMS 114 small cell lung, in the assay on UACC-257 melanoma and with CCRF-CEM leukemia was greater than 100 µM throughout. Further, the TGI in the assay on OVCAR-3 ovarian, in the assay on XF 498 CNS, in the assay on SF-268 CNS, in the assay on M19-MEL melanoma, in the assay on SNB-78 CNS and in the assay on HT29 colon was greater than 100 µM in each case. In the assay with LXFL 529 NSCLC, this molecule came in with a TGI greater than 100 µM.
Take `C=CCc1cccc(/C(O)=C/C(=O)/C=C/c2ccccc2Cl)c1O`: the TGI in the assay with ACHN renal was greater than 100 µM; in the assay with RPMI-8226 leukemia, 36.5 µM; with SF-539 CNS, 72 µM; in the assay on UACC-257 melanoma, greater than 70.4 µM; with CCRF-CEM leukemia, 95.1 µM; with OVCAR-3 ovarian it was 76.3 µM. The TGI in the assay with SF-268 CNS is greater than 100 µM; in the assay on MDA-MB-231 breast it was greater than 93.6 µM; in the assay with DU-145 prostate it was greater than 100 µM; in the assay on HT29 colon, 42.5 µM.
As for `Oc1c(O)c(Cc2ccccc2)c(Cc2ccccc2)c(Cc2ccccc2)c1Cc1ccccc1`, the TGI in the assay with ACHN renal, in the assay on RPMI-8226 leukemia, in the assay on SF-539 CNS, with UACC-257 melanoma, in the assay on CCRF-CEM leukemia and with OVCAR-3 ovarian was greater than 10 µM in each case. Moreover, the TGI in the assay on SF-268 CNS, with MDA-MB-231 breast, with DU-145 prostate and in the assay on HT29 colon was greater than 10 µM each time.
Consider `Cc1ccc(C2SCc3nc4ccccc4n32)cc1` (stereo unspecified), for which the TGI in the assay with ACHN renal was greater than 100 µM; in the assay on RPMI-8226 leukemia, 38.8 µM; with SF-539 CNS, 5.47 µM; in the assay with UACC-257 melanoma, 68.3 µM; in the assay on CCRF-CEM leukemia it was greater than 100 µM; in the assay with OVCAR-3 ovarian, greater than 100 µM. The TGI in the assay with SF-268 CNS was greater than 100 µM; with MDA-MB-231 breast, greater than 100 µM; in the assay with DU-145 prostate it was greater than 100 µM; in the assay with HT29 colon, 79 µM.

The values are drawn from PubChem BioAssay (NCI).
